Assay results as given in PubChem BioAssay AID602211 (Sanford-Burnham Center for Chemical Genomics, 2012).
Activity calls are given as the source filed them.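 How the source made its calls: active means mean IC50 at or below 10 µM; inactive means the rest.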

system: H9c2 cardiomyocytes, H2O2 protection, ATPLite viability, 2 h; experiment: H2O2-induced H9c2 cell death suppression – ATPLite luminescence, set 2, dose response (AID 602211);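 further: potency is for protection so actives keep ATP signal up against peroxide killing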

| SMILES | IC50 |
| --- | --- |
| CCOC(=O)c1nc(Nc2ccc(C(=O)OC)cc2)c2ccccc2n1 | 6.89 µM |
| NS(=O)(=O)c1ccc(N=Cc2c(O)n(-c3nccs3)c(=O)c3ccccc23)cc1 | 4.2 µM |
| COC(=O)c1cc(OC)c(OC)cc1NC(=O)c1ccc(C)o1 | 3.98 µM |
| COc1ccc(-c2cc(NC=O)c3ncc(-c4cccc(C(C)=O)c4)n3c2)cc1 | > 79 µM (inactive) |
| O=[N+]([O-])c1ccc(Nc2nc(N/N=C/c3cccc(F)c3)nc(N3CCCC3)n2)cc1 | 9.66 µM |
| COc1ccc(-c2nc(NC(=O)c3ccc(OCC(=O)N4CCOCC4)c(OC)c3)sc2C)cc1 | > 79 µM (inactive) |
| COc1cccc(-c2cnc3c(NC=O)cc(-c4ccc(O)c(OC)c4)cn23)c1 | 5.89 µM |
| Cc1ccc(Cn2c(CCNc3nc(-c4ccc(Cl)c([N+](=O)[O-])c4)cs3)nc3cc(C(=O)NCCCO)ccc32)cc1 | 1.48 µM |
| COc1cc(NC(=O)c2cc3ccccc3cc2OC)ccc1NC(=O)c1cccs1 | 3.59 µM |
| N#Cc1ccccc1S(=O)(=O)N1CCN(c2nc(-c3cccnc3)nc3ccccc23)CC1 | > 79 µM (inactive) |
| CC(=O)Nc1cc(C)nn1-c1nc2ccccc2s1 | 14.6 µM (inactive) |
| CC1(c2ccccc2)NC(=O)N(CC(=O)Nc2cccc(/C=C/c3ccccn3)c2)C1=O (stereo not given) | 9.76 µM |
| COC(=O)c1cc(NC(=O)c2cc3ccccc3o2)cc(C(=O)OC)c1 | 5.42 µM |
| COc1ccc(-c2oc3c(OC)c(OC)c(OC)c(O)c3c(=O)c2OC)cc1OC | 12.1 µM (inactive) |
| COc1ccc(C(=O)Nc2nc(-c3ccccn3)cs2)cc1S(=O)(=O)N1CCOCC1 | 11.9 µM (inactive) |
| CC(=O)Nc1ccc(C(=O)N/N=C/c2ccccc2OC(=O)c2ccc(Cl)cc2)cc1 | 13.6 µM (inactive) |
| COc1ccc(-c2cc(C(=O)N(C)Cc3ccccc3F)c3ccccc3n2)cc1OC | > 79 µM (inactive) |
| CC(C)(C)OC(=O)N1CCC(NC(=O)c2nc[nH]c2C(=O)NCC(=O)OCc2ccccc2)CC1 | 1.08 µM |
| COCCCN(Cc1ccco1)C(=O)Cn1ncc2c([nH]c3ccccc32)c1=O | 10.9 µM (inactive) |
| Cc1nc(N2CCN(c3ccccn3)CC2)c2c(C)c(C(=O)Nc3ccccc3F)sc2n1 | 4.04 µM |
| COC(=O)c1cc(C(=O)OCC(=O)N2c3ccccc3NC(=O)C2(C)C)cc([N+](=O)[O-])c1 | 6.28 µM |
| COc1cc(OC)cc(-c2cc3nc(C)c(CCC(=O)Nc4nc(C)cs4)c(C)n3n2)c1 | 4.8 µM |
| COc1ccc(COc2cc(-c3cccc(OC)c3)nc3ccc(NC(=O)c4cccnc4)cc23)cc1 | 2.36 µM |
| O=C(NCC1CCCO1)C(c1ccc(F)cc1)N(C(=O)Cn1nnc(-c2ccc(F)cc2)n1)c1cccc(O)c1 (stereo not given) | 4.48 µM |

| SMILES | IC50 |
| --- | --- |
| CC(=O)c1cccc(-c2cnc3c(NC=O)cc(-c4ccc(F)cc4)cn23)c1 | 7.76 µM |
| O=C(NCCN1CCN(c2ccccc2F)CC1)c1cccn2c(=O)c3ccccc3nc12 | 7.34 µM |
| COc1cccc(-c2cnc3c(NC(C)=O)cc(-c4cccc(NS(C)(=O)=O)c4)cn23)c1 | 7.84 µM |
| COc1ccc(C(=O)COC(=O)Cn2[nH]c(=O)c3ccccc3c2=O)c(OC)c1 | 27.2 µM (inactive) |
| CCn1cc(C(=O)Nc2cccc(NC(C)=O)c2)c2cc(OC)c(OC)cc2c1=O | 16.1 µM (inactive) |
| COc1cc(CCNc2ccc3nnc(-c4ccccc4)n3n2)cc(OC)c1OC | 9.52 µM |
| CCn1c(O)c(/C=N/N=C2CCCCC2)c2cc(C3=NNC(=O)CC3)ccc21 | 9.96 µM |
| Cn1c(=O)n(CCc2ccccc2)c(=O)c2c1nc1n2CCN1Cc1ccco1 | > 79 µM (inactive) |
| C=CC[C@@H](CC(=O)NCCO)C(=O)NC[C@H](OC(=O)[C@@H](CC=C)Cc1ccc(F)cc1)c1ccccc1 | 3.38 µM |
| O=C(N/N=C/c1ccccn1)c1[nH]c2ccc([N+](=O)[O-])cc2c1-c1ccccc1 | 2.33 µM |
| CC(C)N1C(=O)S/C(=C/c2ccc3c(c2)n(C)c(=O)n3C)C1=O | 1.71 µM |
| CC1(C)Oc2ccc3ccc(=O)oc3c2/C(=C/Nc2ccccn2)C1=O | > 79 µM (inactive) |
| Nc1c(C(=O)N/N=C/c2cccnc2)oc2nc(-c3ccccc3)cc(-c3ccco3)c12 | 2.86 µM |
| CCCc1cc(N2CCN(C(=O)c3ccco3)CC2)n2c(nc3ccccc32)c1C#N | > 79 µM (inactive) |
| CC(=O)c1ccc(-c2cnc3c(NC=O)cc(-c4cccc(C(=O)N(C)C)c4)cn23)cc1 | 18.9 µM (inactive) |
| COc1cccc(-c2cnc3c(NC=O)cc(-c4cc(C)c(O)c(C)c4)cn23)c1 | 10.2 µM (inactive) |
| CC1Nc2ncnc(N3CCN(c4ccccc4)CC3)c2N(Cc2ccc(Br)cc2)C1=O (stereo not given) | 6.65 µM |
| C=CCn1cnc2c(c1=O)c1nc3ccccc3nc1n2/N=C/c1cc(OC)c(OC)c(OC)c1 | 1.09 µM |
| Cn1c(-n2c(CCCN3C(=O)c4ccccc4C3=O)nc3ccccc3c2=O)nc2ccccc21 | 11.6 µM (inactive) |
| Cc1ccc(-c2nnc3ccc(SCC(=O)N4CCCc5ccccc54)nn23)cc1 | > 79 µM (inactive) |
| O=C(NCC(=O)N(Cc1cccs1)C(C(=O)NC1CCCCC1)c1ccco1)c1ccco1 (stereo not given) | 10.6 µM (inactive) |
| CC(=O)c1cccc(-c2cnc3c(NC=O)cc(-c4ccccc4F)cn23)c1 | 7.66 µM |
| CC(=O)NCCNc1nc2c(-c3ccccc3)nnn2c2ccccc12 | 2.56 µM |
| O=C(c1ccco1)N1CCN(C(=O)c2cc(-c3ccncc3)nc3ccc(Br)cc23)CC1 | 13.8 µM (inactive) |

| SMILES | IC50 |
| --- | --- |
| O=c1c2ccccc2nc(CSc2ncnc3nc[nH]c23)n1-c1ccc(Cl)c(Cl)c1 | 4.13 µM |
| COc1cc(-c2cc(NC(C)=O)c3ncc(-c4ccc(C(C)=O)cc4)n3c2)cc(OC)c1OC | 6.06 µM |
| COCCNC(=O)COC(=O)c1ccc(OCC(=O)Nc2ccccc2OC)c(OC)c1 | 20.4 µM (inactive) |
| NC(=O)c1nsc(C(=O)N(c2ccccc2F)C(C(=O)NCc2ccccc2)c2ccc(O)cc2)c1N (stereo not given) | 0.75 µM |
| COc1ccc2oc(C(=O)Nc3ccc(N4CCOCC4)cc3)c(C)c2c1 | > 79 µM (inactive) |
| COc1cc(/C=C/c2nc3ccccc3c(=O)n2-c2ccc(O)cc2)ccc1O | 3.01 µM |
| NC(=O)c1nsc(C(=O)N(Cc2ccco2)C(C(=O)NCc2ccccc2)c2ccc(O)cc2)c1N (stereo not given) | 9.87 µM |
| CNC(=O)COC(=O)/C=C/c1cn(-c2ccccc2)nc1-c1ccc(C)o1 | 6.31 µM |
| CCCCn1nc(NC(=O)c2cccs2)c2cc3cc(OC)ccc3nc21 | 3.61 µM |
| Cc1c(/C=N/NC(=O)c2ccc(O)cc2)c2ccccn2c1C(=O)c1ccc(F)cc1 | 5.2 µM |
| COc1ccc(-c2cc(-c3nnc(COC(=O)C4CC4)o3)c3ccccc3n2)cc1OC | 4.39 µM |
| CCOC(=O)C1=C(C)NC(C)=C(C(=O)OCC)C1C(=O)OCC(=O)NC1CCCCC1 | 3.32 µM |
| Cn1c(=O)n(CCc2ccccc2)c(=O)c2c1nc1n2CCCN1Cc1ccccc1 | > 79 µM (inactive) |
| COC(=O)c1ccccc1NC(=O)c1nc2nc(C)cc(C)n2n1 | 31.2 µM (inactive) |
| Cc1ccccc1N(C(=O)c1snc(C(N)=O)c1N)C(C(=O)NCc1ccccc1)c1ccc(O)cc1 (stereo not given) | 6.3 µM |
| COc1ccc(CSc2nc3ccccc3c(=O)[nH]2)cc1F | 8.59 µM |
| COc1cc(C(=O)Nc2ccc(NC(=O)c3ccco3)nc2)cc(OC)c1OC | 25.7 µM (inactive) |
| COc1ccc(OCC(O)Cn2c(Nc3cccc(C)c3)nc3c2c(=O)n(C)c(=O)n3C)cc1 (stereo not given) | 12.9 µM (inactive) |
| COc1cc(/C=C/c2nnc3c4ccccc4ncn23)cc(OC)c1OC | 4.47 µM |
| COc1cc(C(=O)Nc2cccc(-c3nnc(-c4ccco4)o3)c2)ccc1OC(C)=O | > 79 µM (inactive) |
| N#C/C(=C\Nc1ccc2c(c1)OCCO2)c1nc2ccccc2[nH]1 | 9.06 µM |
| COc1cc(-c2cc(C(=O)N3CCN(c4ccccn4)CC3)c3ccccc3n2)cc(OC)c1OC | 3.56 µM |
| NC(=O)c1nsc(C(=O)N(c2ccccc2F)C(C(=O)NCc2ccc(F)cc2)c2ccc(O)cc2)c1N (stereo not given) | 0.94 µM |
| O=C(Nc1cccc(/C=C/c2ccccn2)c1)c1ccc(-n2cncn2)cc1 | 3.13 µM |

| SMILES | IC50 |
| --- | --- |
| CCOc1ccc(CCNC(=O)c2cc3c(C)nccc3[nH]c2=O)cc1OCC | 42.9 µM (inactive) |
| O=c1[nH]c(CSc2nnc(-c3cccnc3)n2C2CCCCC2)nc2ccccc12 | 48.2 µM (inactive) |
| CCOc1ccc(C(C(=O)NCC2CCCO2)N(C(=O)c2snc(C(N)=O)c2N)c2ccccc2F)cc1 (stereo not given) | 3.67 µM |
| CCOC(=O)C1=C(C)Nc2ccccc2N=C1NC(=O)c1oc2ccccc2c1COC | 2.89 µM |
| COc1ccc(OCC(O)Cn2c(Br)nc3c2c(=O)[nH]c(=O)n3C)cc1 (stereo not given) | 15.9 µM (inactive) |
| CCOC(=O)c1c(C)[nH]c(C)c1C(=O)COc1ncnc2cc([N+](=O)[O-])ccc12 | 11.1 µM (inactive) |
| COc1ccc(-c2nn(-c3ccccc3)cc2C(=O)Nc2nccs2)cc1 | 8.75 µM |
| COc1cc(/C=N/NC(=O)c2ccncc2)ccc1OC(=O)c1ccccc1Cl | 5.67 µM |
| COc1cccc(CN(C)C(=O)C(Cc2ccccc2)NC(=O)c2ccccc2)c1OC (stereo not given) | 6.8 µM |
| Cc1ccc(NC(=O)c2cc(=O)c3ccccc3o2)cc1S(=O)(=O)N1CCOCC1 | 5.15 µM |
| COc1cc(C(=O)N/N=C/c2ccc(OC(=O)c3ccccc3Cl)cc2)ccc1O | > 79 µM (inactive) |
| COc1ccc2cc3cc(C(=O)NCCc4ccc(OC)c(OC)c4)oc3nc2c1 | 4.28 µM |
| O=C(COC(=O)c1ccccc1C(=O)OCC(=O)NCCc1c[nH]c2ccccc12)NCCc1c[nH]c2ccccc12 | 4.86 µM |
| CCOC(=O)c1ccc(-c2ccc3ncnc(NCc4csc(C)n4)c3c2)o1 | > 79 µM (inactive) |
| CC(C)(C)OC(=O)CNC(=O)c1[nH]cnc1C(=O)Nc1ccc(CNC(=O)OC(C)(C)C)cc1 | 2.15 µM |
| CC(C)=NNc1cnnc2ccc([N+](=O)[O-])cc12 | 4.85 µM |
| Cc1ccc(C)c(NC(=O)C(Sc2nc3ccccc3c(=O)n2CC(C)C)c2ccccc2)c1 (stereo not given) | 0.35 µM |
| COc1ccc(NC(=O)c2oc3ccc(S(=O)(=O)N4CCOCC4)cc3c2C)cc1 | 0.815 µM |
| CCCC(=O)Nc1nc2ccc(NC(=O)c3ccc(Br)o3)cc2s1 | 15.2 µM (inactive) |
| COc1cc(/C=C/c2nc3ccccc3c(=O)n2-c2ccccc2O)ccc1O | 9.9 µM |
| COc1cc(C(=O)N/N=C/c2ccc(OC(=O)c3ccccc3)c(OC)c2)ccc1O | 6.65 µM |
| COc1ccc(-c2nn3c(-c4ccco4)nnc3s2)cc1OC | 12.3 µM (inactive) |
| COc1cc(/C=C/C(=O)Nc2ccc3nc4n(c(=O)c3c2)CCCC4)cc(OC)c1OC | 13.3 µM (inactive) |
